Source: patent publication US20250074867A1, “NOVEL CATIONIC LIPID COMPOUNDS” (Guangzhou Anobri Pharmaceutical Co. Ltd., priority 2021, published 2025)

Key:
[1] = system: luciferase expression in the liver; experiment: In vivo luciferase mRNA expression in liver after tail vein injection of FLuc mRNA lipid nanoparticles; set-up: species or system mice; conditions: liver 5 hours after administration, FLuc mRNA LNP 50% cationic lipid/10% DSPC/40% cholesterol/1.5% PEG-DMG; for Liver Luc @ 0.3 mg/kg dose: 0.3 mg mRNA/kg; for Liver Luc @ 1.0 mg/kg dose: 1.0 mg mRNA/kg
Procedure: […] Lipid nanoparticles (LNPs) were prepared in a total lipid to mRNA weight ratio of about 10:1 to 30:1. mRNA was diluted to 0.15 mg/ml in 10 to 50 ml citrate buffer (pH=4). Using a syringe pump, an ethanolic solution of lipids was mixed with an aqueous mRNA solution in a ratio of approximately 1:5 to 1:3 (volume/volume) at a total flow rate of more than 15 ml/min. Then ethanol was removed and the external buffer replaced by dialysis with PBS. Finally, the lipid nanoparticles were filtered through a 0.2 um pore size sterile filter. The particle size of lipid nanoparticles as determined by quasi-elastic light scattering using Malvern Zetasizer Nano ZS was approximately 65-105 nm in diameter and, in some cases, approximately 75-100 nm in diameter.
The in vivo study was conducted on female mice aged 6-8 weeks and mice aged 8-10 weeks according to guidelines developed by the National Council for Science and Technology. Different doses of mRNA lipid nanoparticles were administered systemically via tail vein injection and the animals euthanized at specific time points (e.g., 5 hours) after dosing. The liver and spleen were collected in pre-weighed tubes, their weights determined, frozen immediately in liquid nitrogen, and stored at −80° C. until use for analysis.
For the liver, approximately 50 mg of liver tissue was cut for analysis and placed in 2 mL FastPrep tubes (MP Biomedicals, Solon OH). ¼″ ceramic beads (MP Biomedicals) and 500 μL of Glo Lysis Buffer-GLB (Promega, Madison WI) were added to each tube and the contents equilibrated to room temperature. The liver tissue was then homogenized for 15 seconds at 2×6.0 m/s using a FastPrep24 instrument (MP Biomedicals). The homogenates were incubated for 5 minutes at room temperature followed by a ¼ dilutions in GLB and evaluated using the SteadyGlo luciferase assay system (Promega). Specifically, 50 μL of diluted tissue homogenate was reacted with 50 μL of SteadyGlo substrate, shaken for 10 seconds, followed by incubation for 5 minutes and quantified using a CentroXS3LB 960 photometer (Berthold Technologies, Germany). The amount of protein was determined using a BCA Protein Assay Kit (Pierce, Rockford IL). Relative luminescence units (RLU) were then normalized to the total ug of the measured protein. To convert RLU into ng luciferase, a standard curve was generated with QuantiLum recombinant luciferase (Promega).
FLuc mRNA (L-6107) from Trilink Biotechnologies will express luciferase protein, and was originally isolated from fireflies (Photinus pyralis). Fluc is commonly used in mammalian cell cultures to measure gene expression and cell viability. It emits biologic light in the presence of the substrate luciferin. This capped and polyadenylated mRNA was completely replaced by 5-methylcytidine and pseudouridine. […]

[2] = Determination of the pKa of cationic lipids in lipid nanoparticles by TNS fluorescence analysis
Procedure: The pKa of each cationic lipid was determined in lipid nanoparticles using fluorescence analysis based on 2-(p-toluidine)-6-naphthalenesulfonic acid (TNS). As described in Example 3, lipid nanoparticles containing cationic lipids/DSPC/cholesterol/PEG lipids (50/10/40/1.5 mol %) at a concentration of 0.4 mM total lipid in PBS were prepared using an ordered method. 100 μM stock solution was prepared with TNS in distilled water. The vesicles were diluted to contain 24 μM lipid in 2 mL of a buffer solution containing 10 mM HEPES, 10 mM MES, 10 mM acetic acid, 130 mM NaCl, and having a pH of 2.5 to 11. The equal TNS solution was added to produce a final concentration of 1 uM, and after vortex mixing, fluorescence intensity was measured in a SLM Aminco Series 2 luminescence spectrophotometer at room temperature using excitation and emission wavelengths of 321 nm and 445 nm. Fluorescence data were analyzed using a sigmoidal best fit and pKa was measured as the pH producing half-maximal fluorescence intensity.

| Compound | Liver Luc @ 0.3 mg/kg dose [1] [ng luciferase/g liver] | Liver Luc @ 1.0 mg/kg dose [1] [ng luciferase/g liver] | pKa [2] |
| --- | --- | --- | --- |
| 2-heptylnonyl 8-((2-hydroxyethyl) (6-oxo-6-(undecyloxy)hexyl)amino)octanoate [Compound B] | 134 ± 40 | 522 ± 210 |  |
| CCCCCCCCCCCOC(=O)CCCCCN(CCO)CCCCCCCC(=O)OCC(CCCCCCCC)CCCCCCCC [Compound A, 2-octyldecyl 8-((2-hydroxyethyl) (6-oxo-6-(undecyloxy)hexyl)amino)octanoate] | 156 ± 50 | 550 ± 200 | 6.01 |
